Data: patent US8551984B2, “Aminopyrimidines as SYK inhibitors” (Merck Sharp & Dohme Corp., priority 2009, dated 2013)
Like-named read-outs stand apart in the source and are kept apart here.

How the values were obtained:
rhSYK = rhSYK (Homo sapiens, UniProt P43405)
[1] = target: recombinant human SYK (GST-hSYK fusion protein) (Homo sapiens, UniProt P43405); assay: biochemical
From the text: Homogeneous Time-Resolved Fluorescence (HTRF) Assay for the Recombinant Human SYK Enzyme:

[2] = read-out: rhSYK Activity, class symbol, where two forms are listed, one symbol per form
[3] = read-out: rhSYK Activity, Table 117
[4] = read-out: rhSYK Activity, Table 119, two symbols in a cell = one per listed form
[5] = read-out: rhSYK activity, class symbol given
[6] = rhSYK Activity (IC50), recombinant human GST-SYK 5 pM, ATP 25 μM, biotinylated substrate peptide 250 nM, HTRF, 10-dose titration

Row | SMILES | IC50 (rhSYK; [2]) [nM] | further results
1 | OC(c1ncc(-c2cccc(Nc3nccc(C(F)(F)F)n3)c2)s1)C1CCCC1 (stereo not drawn) [Example 4A-15] | 100 to 1000 | 
2 | CC(O)(c1cccnc1)c1ncc(-c2cccc(Nc3nccc(C(F)(F)F)n3)c2)s1 (stereo not drawn) [Example 4A-21] | < 100 | 
3 | Cc1cc(Nc2nccc(C(F)(F)F)n2)cc(-c2cnc(C(O)CCC#N)s2)c1 (stereo not drawn) [Example 4A-41] | < 100 | 
4 | CC1CCCC1(O)c1ncc(-c2cccc(Nc3nccc(C(F)(F)F)n3)c2)s1 (stereo not drawn) [Example 4B-2] | < 100 | 
5 | Cc1cc(Nc2nccc(C(F)(F)F)n2)cc(-c2cnc(C3(O)CCC(CC(N)=O)CC3)s2)c1 (stereo not drawn) [Example 117-9] |  | IC50 (rhSYK; [3]): < 100 nM
6 | COc1ccnc(Nc2cc(C)cc(-c3cnc(C4(O)CCC(C(N)=O)C(C)(C)C4)s3)c2)n1 (stereo not drawn) [Example 119-13] |  | IC50 (rhSYK; [4]): < 100 nM
7 | Cc1cc(Nc2nccc(C(F)(F)F)n2)cc(-c2cnc([C@]3(O)CC[C@@H](NC(=O)Cn4ccnc4)CC3)s2)c1 [Example 4C-29] | < 100 | 
8 | CC(O)(c1ncc(-c2cccc(Nc3nccc(C(F)(F)F)n3)c2)s1)C1CCC1 (stereo not drawn) [Example 4A-23] | < 100 | 
9 | Cc1cc(Nc2nccc(C)n2)cc(-c2cnc(C3(O)CCC(C(N)=O)C(C)C3)s2)c1 (single isomer, unassigned) [Example 119-6] |  | IC50 (rhSYK; [4]): < 100 nM
10 | CCOC(=O)C1CCCC(O)(c2ncc(-c3cc(C)cc(Nc4nccc(C(F)(F)F)n4)c3)s2)C1 (stereo not drawn) [Example 4C-21] | 100 to 1000 | 
11 | CC(C)C(O)(c1ncc(-c2cccc(Nc3nccc(C(F)(F)F)n3)c2)s1)C(C)C [Example 4A-24] | 100 to 1000 | 
12 | Cc1cc(Nc2nccc(C(F)(F)F)n2)cc(-c2cnc(C3(O)CC4C(Br)CC3C4C(=O)O)s2)c1 (stereo not drawn) [Example 4B-54] | < 100 | 
13 | Cc1cc(Nc2nccc(C(F)(F)F)n2)cc(-c2cnc(C3(O)CCC(C(=O)O)CC3)s2)c1 (single isomer, unassigned) [33(2), cis-4-hydroxy-4-[5-(3-methyl-5-{[4-(trifluoromethyl)pyrimidin-2-yl]amino}phenyl)-1,3-thiazol-2-yl]cyclohexanecarboxylic acid] |  | IC50 (rhSYK; [5]): < 100 nM
14 | Cc1cc(Nc2nccc(C(F)(F)F)n2)cc(-c2cnc(C(C)(O)c3ccc(C(N)=O)cc3)s2)c1 (single isomer, unassigned) [Example 117-21] |  | IC50 (rhSYK; [3]): < 100 nM
15 | Cc1cc(Nc2nccc(C(F)(F)F)n2)cc(-c2cnc([C@]3(O)CC[C@H](CO)CC3)s2)c1 [Example 4C-6] | < 100 | 
16 | Cc1cc(Nc2nccc(C(F)(F)F)n2)cc(-c2cnc(C(C)(O)c3ccc(CC(=O)O)cc3)s2)c1 (single isomer, unassigned) [Example 4A-59] | < 100 | 
17 | Cc1cc(Nc2nccc(C(F)(F)F)n2)cc(-c2cnc(C3(O)CC4C(Br)CC3C4C(=O)O)s2)c1 (stereo not drawn) [Example 4B-53] | < 100 | 
18 | Cc1cc(Nc2nccc(C(F)(F)F)n2)cc(-c2cnc(C(C)(O)CO)s2)c1 (stereo not drawn) [Ex 5-5] | < 100 | 
19 | Cc1cc(Nc2nccc(C(F)(F)F)n2)cc(-c2cnc(C(C)(O)c3ccc(Br)nc3)s2)c1 (stereo not drawn) [Example 4A-70] | < 100 | 
20 | Cc1cc(Nc2nccc(C(F)(F)F)n2)cc(-c2cnc(C(C)(O)CCCN)s2)c1 (stereo not drawn) [Example 4A-46] | < 100 | 
21 | C=CCCC(O)c1ncc(-c2cc(C)cc(Nc3nccc(C(F)(F)F)n3)c2)s1 (stereo not drawn) [Example 4A-42] | < 100 | 
22 | Cc1cc(Nc2nccc(C(C)C)n2)cc(-c2cnc(C3(O)CCC(C(N)=O)C(C)C3)s2)c1 (stereo not drawn) [Example 119-11] |  | IC50 (rhSYK; [4]): < 100 nM
23 | Cc1cc(Nc2nccc(C(F)(F)F)n2)cc(-c2cnc([C@]3(O)CC[C@H](C(N)=O)CC3)s2)c1 [38(1), trans-4-hydroxy-4-[5-(3-methyl-5-{[4-(trifluoromethyl)pyrimidin-2-yl]amino}phenyl)-1,3-thiazol-2-yl]cyclohexanecarboxamide] |  | IC50 (rhSYK; [5]): < 100 nM

Row | SMILES | IC50 (rhSYK; [2]) [nM] | further results
24 | CC(=O)c1ccc(C(C)(O)c2ncc(-c3cc(C)cc(Nc4nccc(C(F)(F)F)n4)c3)s2)cc1 (stereo not drawn) [Example 4A-51] | < 100 | 
25 | CCOC(=O)C1(C(C)(O)c2ncc(-c3cccc(Nc4nccc(C(F)(F)F)n4)c3)s2)CC1 (stereo not drawn) [Example 4A-26] | 100 to 1000 | 
26 | Cc1cc(Nc2nccc(C(F)(F)F)n2)cc(-c2cnc(C(C)(O)c3ccc(CC(=O)O)cc3)s2)c1 (stereo not drawn) [Example 4A-58] | < 100 | 
27 | Cc1cc(Nc2nccc(C(F)(F)F)n2)cc(-c2cnc(C(O)(C3CC3)C3CC3)s2)c1 [Example 4A-37] | < 100 | 
28 | Cc1cc(Nc2nccc(C(F)(F)F)n2)cc(-c2cnc([C@]3(O)CC[C@@H](C(=O)O)CC3)s2)c1 [33(1)-K, Potassium cis-4-hydroxy-4-[5-(3-methyl-5-{[4-(trifluoromethyl)pyrimidin-2-yl]amino}phenyl)-1,3-thiazol-2-yl]cyclohexanecarboxylate] |  | IC50 (rhSYK; [5]): < 100 nM
29 | Cc1cc(Nc2nccc(C(F)(F)F)n2)cc(-c2cnc(C3(O)CCC(C(N)=O)C(C)C3)s2)c1 (single isomer, unassigned) [Example 119-112] |  | IC50 (rhSYK; [4]): < 100 nM
30 | Cc1cc(Nc2nccc(C(F)(F)F)n2)cc(-c2cnc(C3(O)CCC(NC(=O)C4CCC(=O)O4)CC3)s2)c1 (stereo not drawn) [Example 4C-30] | < 100 | 
31 | O=C(c1ccoc1)c1ncc(-c2cccc(Nc3nccc(C(F)(F)F)n3)c2)s1 [Example 4B-4] | 100 to 1000 | 
32 | Cc1cc(Nc2ncc(Cl)cn2)cc(-c2cnc(C(C)(O)CO)s2)c1 (stereo not drawn) [Ex 5-11] | 100 to 1000 | 
33 | CCOC(=O)N1C2CCC1CC(O)(c1ncc(-c3cccc(Nc4nccc(C(F)(F)F)n4)c3)s1)C2 (stereo not drawn) [Example 4B-3] | 100 to 1000 | 
34 | Cc1cc(Nc2nccc(C(F)(F)F)n2)cc(-c2cnc(C(C)(O)c3cccc(OCC(=O)O)c3)s2)c1 (stereo not drawn) [Example 4A-67] | < 100 | 
35 | COc1ccc(Nc2nccc(C(F)(F)F)n2)cc1-c1cnc(C2(O)CCC2)s1 [Example 1-1] | < 100 | 
36 | Cc1cc(Nc2nccc(C(F)(F)F)n2)cc(-c2cnc(C(C)(O)Cc3ccc(C(=O)O)cc3)s2)c1 (stereo not drawn) [Example 4A-61] | < 100 | 
37 | COC(=O)c1ccc(C(C)(O)c2ncc(-c3cc(C)cc(Nc4nccc(C(F)(F)F)n4)c3)s2)cc1 (stereo not drawn) [Example 33D-17] |  | IC50 ([1]; rhSYK Activity, Table 33D): < 100 nM
38 | COC(=O)C1CCC(O)(c2ncc(-c3cc(C)cc(Nc4nccc(C)n4)c3)s2)CC1C (stereo not drawn) [Example 113A-11] |  | IC50 ([1]; rhSYK Activity, Table 113A): < 100 nM
39 | Cc1cc(Nc2nccc(C)n2)cc(-c2cnc(C3(O)CCC3)s2)c1 [Example 56-1] |  | IC50 ([1]; rhSYK Activity, Table 56): < 100 nM
40 | Cc1cc(Nc2nccc(OC3CCC(O)CC3)n2)cc(-c2cnc(C(C)(O)C(F)(F)F)s2)c1 (mixture of isomers) [Example 96, 4-{[2-({3-methyl-5-[2-(1,1,1-trifluoro-2-hydroxypropan-2-yl)-1,3-thiazol-5-yl]phenyl}amino)-pyrimidin-4-yl]oxy}cyclohexanol] |  | IC50 [1, 6]: < 100 nM
41 | Cc1cc(Nc2nccc(OC3CCC(OCc4ccccc4)CC3)n2)cc(-c2cnc(C(C)(O)C(F)(F)F)s2)c1 (stereo not drawn) [Example 94B-3, 2-(5-{3-[(4-{[4-(benzyloxy)cyclohexyl]oxy}pyrimidin-2-yl)amino]-5-methylphenyl}-1,3-thiazol-2-yl)-1,1,1-trifluoropropan-2-ol] |  | IC50 [1, 6]: 100 to 1000 nM
42 | FC(F)(F)c1ccnc(Nc2cccc(-c3cnc(C4CCc5ccccc54)s3)c2)n1 (stereo not drawn) [Example 21-7] |  | IC50 ([1]; rhSYK Activity, Table 21): 1000 to 10000 nM
43 | NC(=O)[C@H]1CC[C@H](c2ncc(-c3cccc(Nc4nccc(C(F)(F)F)n4)c3)s2)CC1 [23-1] |  | IC50 ([1]; hSYK Activity, table of Example 23-1): < 100 nM
44 | COCCOc1ccnc(Nc2cc(C)cc(-c3cnc(C4(O)CCC4)s3)c2)n1 [Example 94A-14] |  | IC50 [1, 6]: < 100 nM
45 | Cc1cc(Nc2nccc(C(F)(F)F)n2)cc(-c2cnc(C3(O)CCC(NC(=O)c4cccc(O)n4)CC3)s2)c1 (stereo not drawn) [Example 54E-25] |  | IC50 ([1]; rhSYK Activity, Table 54E): < 100 nM
